The assay in a line: Antagonism of calmodulin dependent cAMP Phosphodiesterase. The assay is classed as functional.

The values that follow come from ChEMBL document CHEMBL1128874 (Bioorg Med Chem Lett, 1995).

As usually defined, the IC50 is the point on the concentration scale where inhibition reaches its midpoint. Low values mean greater potency, high ones weaker potency.

As for `CC/C(=C(\c1ccc(I)cc1)c1ccc(OCCN2CCCC2)cc1)c1ccc(I)cc1`, the IC50 was 5000 nM. To `CC/C(=C(\c1ccc(I)cc1)c1ccc(OCCN2CCCC2)cc1)c1ccc(O)cc1` belongs 1800 nM. Under `CC/C(=C(\c1ccc(I)cc1)c1ccc(OCCN2CCCC2)cc1)c1ccc(N)cc1` stands 2600 nM. Under `CC/C(=C(/c1ccc(I)cc1)c1ccc(OCCN2CCCC2)cc1)c1ccc(O)cc1` stands 2200 nM; under `CC/C(=C(\c1ccc(I)cc1)c1ccc(OCCN2CCCC2)cc1)c1ccccc1` [IDOXIFENE], 1500 nM.
